Target: T1, Pro_7066 (uncultured bacterium, UniProt Z9M604V374)
T1 construct: His6-tagged, pET28a, E. coli BL21 (DE3); tag removal not mentioned; 130-kDa chain, homodimer; domains span residues 1-1156; GH149
T1 sequence (Z9M604V374 20-1175): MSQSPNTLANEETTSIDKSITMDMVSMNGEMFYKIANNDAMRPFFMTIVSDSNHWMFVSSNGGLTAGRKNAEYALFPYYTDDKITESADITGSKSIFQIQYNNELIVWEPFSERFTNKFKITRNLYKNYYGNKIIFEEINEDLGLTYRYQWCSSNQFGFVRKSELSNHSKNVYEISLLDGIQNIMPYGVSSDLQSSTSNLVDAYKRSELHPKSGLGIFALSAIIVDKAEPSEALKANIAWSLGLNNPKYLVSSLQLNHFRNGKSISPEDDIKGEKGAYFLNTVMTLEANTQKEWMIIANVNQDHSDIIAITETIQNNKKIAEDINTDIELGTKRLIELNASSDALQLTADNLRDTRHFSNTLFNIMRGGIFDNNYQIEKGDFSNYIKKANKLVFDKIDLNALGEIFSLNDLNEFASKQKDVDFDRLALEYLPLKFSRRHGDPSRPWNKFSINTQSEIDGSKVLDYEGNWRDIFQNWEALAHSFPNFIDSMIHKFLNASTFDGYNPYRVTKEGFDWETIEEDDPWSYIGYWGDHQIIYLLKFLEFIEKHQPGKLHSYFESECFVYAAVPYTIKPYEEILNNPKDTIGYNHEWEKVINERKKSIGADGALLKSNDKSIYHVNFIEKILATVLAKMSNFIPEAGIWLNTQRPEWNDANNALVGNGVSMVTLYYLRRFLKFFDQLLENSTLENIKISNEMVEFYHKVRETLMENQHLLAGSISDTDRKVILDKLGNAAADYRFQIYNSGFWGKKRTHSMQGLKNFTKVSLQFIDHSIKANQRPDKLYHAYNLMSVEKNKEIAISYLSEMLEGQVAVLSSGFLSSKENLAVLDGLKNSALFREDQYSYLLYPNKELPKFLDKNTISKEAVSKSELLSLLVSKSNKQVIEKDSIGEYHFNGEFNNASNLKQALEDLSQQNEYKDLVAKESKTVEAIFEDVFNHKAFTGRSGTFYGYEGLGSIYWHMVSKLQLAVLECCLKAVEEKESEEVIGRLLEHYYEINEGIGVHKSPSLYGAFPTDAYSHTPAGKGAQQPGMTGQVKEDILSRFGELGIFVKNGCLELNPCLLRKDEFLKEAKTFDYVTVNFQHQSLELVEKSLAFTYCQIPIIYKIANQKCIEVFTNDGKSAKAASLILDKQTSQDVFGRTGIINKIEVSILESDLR
Test: X-ray crystal structure (co-crystallization), […] Å
Settings: 8 mM G6, pH 9.0; surface binding site on catalytic domain, ~30 Å from active site; active site holds bicine and sulfate

In the case of `OC[C@H]1O[C@@H](O[C@@H]2[C@@H](O)[C@H](O[C@@H]3[C@@H](O)[C@H](O[C@@H]4[C@@H](O)[C@H](O[C@@H]5[C@@H](O)[C@H](O[C@H]6[C@H](O)[C@@H](CO)OC(O)[C@@H]6O)O[C@H](CO)[C@H]5O)O[C@H](CO)[C@H]4O)O[C@H](CO)[C@H]3O)O[C@H](CO)[C@H]2O)[C@H](O)[C@@H](O)[C@@H]1O` (stereo partly shown) [G6, laminarihexaose], the “X-ray crystal structure (co-crystallization), 2.25 Å” value is reported as “G6 bound to a SBS located on the solvent‐exposed surface of the catalytic domain”.

— paper PMC6771811, “The structure of a GH149 β‐(1 → 3) glucan phosphorylase reveals a new surface oligosaccharide binding site and additional domains that are absent in the disaccharide‐specific GH94 glucose‐β‐(1 → 3)‐glucose (laminaribiose) phosphorylase” (Proteins, 2019)
